The source of these data is patent US12491253B2, “Bicyclic peptide ligands specific for MT1-MMP” (BicycleRD Limited, priority 2018, dated 2025).

For orientation: Kd means the concentration at which binding is half-saturated.

In the assay the target is MT1-MMP hemopexin domain (Homo sapiens, UniProt P50281). Particulars: Human MT1-MMP FP direct binding; fluoresceinated bicyclic peptide titrated with hemopexin domain; molecular scaffold TBMB. How it is done:
Direct Binding Fluorescence Polarisation or Anisotropy Assays are performed by titrating a constant concentration of fluorescent tracer (here, the fluoresceinated bicyclic peptide to be studied) with its binding partner (here, the MT1-MMP hemopexin domain). As the concentration of binding partner increases during the titration, the polarisation signal changes in proportion to the fraction of bound and unbound material. This allows determination of […] (Kd) quantitatively. Assay data can be fit using standard ligand binding equations.
The titrant (binding partner) concentration is varied from 0.1 nM up to typically 5 μM. The range is chosen such that the maximum change in fluorescent polarisation can be observed. Buffers employed are phosphate buffered saline in the presence of 0.01% Tween. Experiments were run in black 384 well low-bind/low volume plates (Corning 3820), and the fluorescent polarisation signal was measured using a BMG Pherastar FS plate reader. […] Fluoresceination may be performed on the N-terminal amino group of the peptide, which is separated from the bicycle core sequence by a sarcosine spacer (usually Sar5). This can be done during Fmoc solid phase synthesis or post-synthetically (after cyclisation with TBMB and purification) if the N-terminal amino group is unique to the peptide. Fluoresceination can also be performed on the C-terminus, usually on a Lysine introduced as the first C-terminal residue, which is then separated from the bicycle core sequence by a sarcosine spacer (usually Sar6). Thus, N-terminal tracers can have a molecular format described as Fluo-Gly-Sar6-A (BicycleCoreSequence), and (BicycleCoreSequence)-A-Sar6-K(Fluo) for a C-terminally fluoresceinated construct.
Fluorescent tracers used in the Examples include BCY1323-Sar6-K(FI), BCY1326-Sar6-K(FI), BCY3418-Sar6-K(FI), BCY3422-K(FI), and BCY1329-Sar6-K(FI).
On to “fluoresceinated bicyclic peptide tracer on TBMB, used as BCY1323-Sar6-K(FI); sequence not given”, for which the Kd is 35.9 ± 6.65 nM.
Next, “fluoresceinated bicyclic peptide tracer on TBMB, used as BCY1326-Sar6-K(FI); sequence not given”: 218 nM.
Next, “fluoresceinated bicyclic peptide tracer on TBMB, used as BCY1329-Sar6-K(FI); sequence not given”: 22.1 ± 11 nM.
